Values after ≈ are worked out from the molar mass of the structure shown.
Experiments:
[1] = Physical form and Tg of formulations by XRPD and/or DSC; assay type: physicochemical; conditions: as prepared
Procedure: The physical form of the product is identified visually (e.g., solid powder) and by XRPD and/or DSC (to assess amorphous or crystalline state). Tg values are estimates from DSC curves.
X-ray Powder Diffraction (XRPD) is performed with a Panalytical X'Pert^3 Powder XRPD. FIGS. 8-10 show XRPD plots for various formulations made using ITZ and PAA-8. In FIG. 8, plots for ITZ alone (Neat IZT, Formulation F25), a physical mixture of 15% ITZ and 85% PAA (PM 15%, Formulation F26), and a spray-dried solid dispersion of 15% ITZ and 85% PAA (ASD 15%, Formulation F2), are shown. In FIG. 9, plots for ITZ alone (Neat IZT, Formulation F25), a physical mixture of 30% ITZ and 70% PAA (PM 30%, Formulation F27), and a spray-dried solid dispersion of 30% ITZ and 70% PAA (ASD 30%, Formulation F3), are shown. In FIG. 10, plots for ITZ alone (Neat IZT, Formulation F25), a physical mixture of 50% ITZ and 50% PAA (PM 50%, Formulation F28), and a spray-dried solid dispersion of 50% ITZ and 50% PAA (ASD 50%, Formulation F5), are shown.
XRPD is performed with Si zero background holders. The 2-theta position is performed with a Panalytical Si reference standard disc. The XRPD instrument configuration is Bragg-Brentano geometry.
Differential Scanning calorimetry (DSC) is performed with a Mettler-Toldeo DSC-1 instrument (no modulated DSC software) using a sample amount of 5-10 mg. […]

[2] = model APIs; cited from earlier work
[3] = Solubility limit of drug in equilibrated dissolution media; assay type: physicochemical; conditions: equilibrated dissolution media (0.1 N HCl), simulated gastric fluid; 750 mL 0.1 N HCl, 37° C.
[4] = cited from earlier work

Compound	Form [1]	Glass transition temperature, Tg (° C.) [2] [°C]	solubility [3] [µg/mL]	Aqueous solubility [4] [µg/mL]	solubility in water ([4]; water) [µg/mL]
CC(C)c1nc(CN(C)C(=O)N[C@H](C(=O)N[C@@H](Cc2ccccc2)C[C@H](O)[C@H](Cc2ccccc2)NC(=O)OCc2cncs2)C(C)C)cs1 [Ritonavir, 5-thiazolylmethyl ((alphaS)-alpha-((1S,3S)-1-hydroxy-3-((2S)-2-(3-((2-isopropyl-4-thiazolyl)methyl)-3-methylureido)-3-methylbutyramido)-4-phenylbutyl)phenethyl)carbamate]	Crystalline	45			
CCC(C)n1ncn(-c2ccc(N3CCN(c4ccc(OCC5COC(Cn6cncn6)(c6ccc(Cl)cc6Cl)O5)cc4)CC3)cc2)c1=O [Itraconazole, 1-(butan-2-yl)-4-{4-[4-(4-{[(2R, 4S)-2-(2,4-dichlorophenyl)-2-(1H-1,2,4-triazol-1-ylmethyl)-1,3-dioxolan-4-yl]methoxylphenyl)piperazin-1-yl]phenyl}-4,5-dihydro-1H-1,2,4-triazol-5-one]			4 to 6 (≈ 5.67 to 8.5 µM)	0.001 to 0.004	0.001 to 0.004
